pKi: −log10 of the molar value.

Experimental findings from patent publication EP1068199B1, “N-ARYLOXYETHYL-INDOLY-ALKYLAMINES FOR THE TREATMENT OF DEPRESSION” (Wyeth, priority 1998, dated 1999) are described below.

In assay [1] the target is T1, human 5-HT1A receptor subtype (Homo sapiens, UniProt P08908).
T1 construct: expressed in transfected cells
T1 sequence (P08908 1-422): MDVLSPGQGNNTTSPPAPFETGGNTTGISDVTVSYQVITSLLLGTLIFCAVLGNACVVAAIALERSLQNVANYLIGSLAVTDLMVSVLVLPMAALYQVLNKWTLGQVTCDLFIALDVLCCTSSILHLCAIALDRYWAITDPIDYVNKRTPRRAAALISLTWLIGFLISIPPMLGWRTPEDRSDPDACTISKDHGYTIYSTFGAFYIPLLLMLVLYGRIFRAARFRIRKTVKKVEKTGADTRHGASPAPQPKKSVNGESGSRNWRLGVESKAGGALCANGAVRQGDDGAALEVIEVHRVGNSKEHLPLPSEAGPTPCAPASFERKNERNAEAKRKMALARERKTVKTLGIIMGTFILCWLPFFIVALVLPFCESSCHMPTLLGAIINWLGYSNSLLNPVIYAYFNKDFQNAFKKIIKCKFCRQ
In words: 5-HT1A receptor binding, [3H]8-OH-DPAT competition on h5-HT1A.CHO cell membranes. Conditions: [3H]8-OH-DPAT 1.5 nM.
Description: A stable Chinese hamster ovary cell line expressing the human 5-HT1A receptor subtype (h5-HT1A.CHO cells) was employed throughout this study. Cells were maintained in DMEM supplemented with 10% fetal calf serum, non-essential amino acids and penicillin/ streptomycin.
Cells were grown to 95-100% confluency as a monolayer before membranes were harvested for binding studies. Cells were gently scraped from the culture plates, transferred to centrifuge tubes, and washed twice by centrifugation (2000 rpm for 10 min., 4°C) in buffer (50 mM Tris; pH 7.5). The resulting pellets were aliquoted and placed at -80°C. On the day of assay, the cells were thawed on ice, and resuspended in buffer. Studies were conducted using [^3H]8-OH-DPAT as the radioligand. The binding assay was performed in 96 well microtiter plates in a final total volume of 250 µL of buffer. […] Non-specific binding was determined in the presence of 10 µM 5HT. Saturation analysis was conducted by using [^3H]8-OH-DPAT at concentrations ranging from 0.3-30 nM. Following a 30 minute incubation at room temperature, the reaction was terminated by the addition of ice cold buffer and rapid filtration using a M-96 Brandel Cell Harvester (Gaithersburg, MD) through a GF/B filter presoaked for 30 minutes in 0.5% polyethyleneimine.

Another assay addresses T2, 5-HT1A cloned receptor (Homo sapiens, UniProt P08908).
T2 construct: expressed in transfected cells
T2 sequence (P08908 1-422): T1 sequence (P08908 1-422)
In words: [35S]-GTPγS binding assay on 5-HT1A cloned receptor membrane fragments. Format: biochemical. Particulars: maximum agonist response defined by excess 8-OH-DPAT.

The target in another assay is T3, serotonin transporter (Rattus norvegicus, UniProt P31652).
T3 construct: frontal cortical membranes prepared from male Sprague-Dawley rats; from tissue; host or cells: rat frontal cortex membranes (male Sprague-Dawley)
T3 sequence (P31652 whole entry): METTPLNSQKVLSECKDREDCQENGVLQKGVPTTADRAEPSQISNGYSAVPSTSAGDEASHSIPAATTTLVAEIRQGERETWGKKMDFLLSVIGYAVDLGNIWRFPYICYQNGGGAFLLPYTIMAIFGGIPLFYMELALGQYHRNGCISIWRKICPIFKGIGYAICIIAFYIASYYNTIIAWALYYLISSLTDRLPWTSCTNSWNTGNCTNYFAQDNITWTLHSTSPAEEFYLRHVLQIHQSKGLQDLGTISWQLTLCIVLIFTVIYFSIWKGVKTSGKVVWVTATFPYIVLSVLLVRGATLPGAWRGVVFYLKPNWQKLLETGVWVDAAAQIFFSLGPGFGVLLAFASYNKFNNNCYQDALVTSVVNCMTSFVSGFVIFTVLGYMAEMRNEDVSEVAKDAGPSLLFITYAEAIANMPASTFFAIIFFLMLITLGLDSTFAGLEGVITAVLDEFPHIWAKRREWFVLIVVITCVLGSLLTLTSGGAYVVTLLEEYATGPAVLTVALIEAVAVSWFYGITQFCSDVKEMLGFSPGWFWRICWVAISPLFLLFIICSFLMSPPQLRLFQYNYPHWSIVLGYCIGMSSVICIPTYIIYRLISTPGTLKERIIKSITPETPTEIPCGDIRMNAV
In words: Serotonin transporter affinity, 3H-paroxetine binding to frontal cortical membranes. Also noted: species or system male Sprague-Dawley rats. Particulars: read-out: ST (Ki, nM,).

Description for 5-HT1A cloned receptor: When needed, membranes were rapidly thawed, centrifuged at 40,000 x g for 10 minutes and resuspended at 4 °C for 10 minutes in assay buffer (25 mM HEPES, 3 mM MgCl2, 100 mM NaCI, 1 mM EDTA, 10 uM GDP, 500 mM DTT, pH 8.0). These membranes were then incubated for 30 min at 30 °C with [^35S]GTPgS (1 nM) in the presence of vehicle, test compound (one to eight concentrations), or excess 8-OH-DPAT to define maximum agonist response. All reactions are terminated by the addition of ice cold Tris buffer followed by rapid filtration using a Tom Tech® filtration device to separate bound from free [^35S]GTPgS.
Description for serotonin transporter: Briefly, frontal cortical membranes prepared from male Sprague-Dawley rats were incubated with ^3H-paroxetine (0.1 nM) for 60 min at 25°C. […] All reactions are terminated by the addition of ice cold Tris buffer followed by rapid filtration using a Tom Tech filtration device to separate bound from free ^3H-paroxetine.

As a reminder, the pKi is −log10 of the Ki, conventionally taken in molar units. A low value points to a large Ki. By Emax is commonly meant the size of the effect at its maximum, as opposed to the concentration needed. By Ki is commonly meant the equilibrium dissociation constant of an inhibitor or competing ligand from its target. On to `O=c1[nH]c2cccc(OCCNCCCc3c[nH]c4ccccc34)c2[nH]1` [Example 2, 4-{2-[3-(1H-Indol-3-yl)-propylamino]-ethoxy}-1,3-dihydrobenzoimidazole-2-one], for which the pKi in assay [1] is 8.50. On 5-HT1A cloned receptor, this compound gave an Emax of 98.5%. The Ki at serotonin transporter turned out to be 2.09 nM.

In assay [1], `O=C1Cc2c(OCCNCCCc3c[nH]c4ccccc34)ccc(F)c2N1` [Example 6, 7-Fluoro-4-{2-[3-(1H-indol-3-yl)-propylamino]-ethoxy}-1,3-dihydro-indol-2-one] had a negative logarithm of the Ki (pKi) of 7.41. The Emax on 5-HT1A cloned receptor came to 49.9%. The Ki at serotonin transporter stood at 12 nM.

Compound `S=c1[nH]c2cccc(OCCNCCCc3c[nH]c4ccccc34)c2[nH]1` [Example 3, 4-{2-[3-(1H-Indol-3-yl)-propylamino]-ethoxy}-1,3-dihydrobenzoimidazole-2-thione] gave a pKi in assay [1] of 8.11. The inhibition constant Ki on serotonin transporter came out at 21 nM.
